What was measured:
[1] = test system: left anterior descending coronary artery ligation model; assay: Acute myocardial ischemia model in rats with left anterior descending coronary artery ligation; format: in vivo, SD rats; conditions: in words
Method: 2. The acute myocardial ischemia model in rats with left anterior descending coronary artery ligation: SD rats are selected and divided into 6 groups according to body weight: blank control group, model group, ZA high dose group (0.5 mg/kg iv). ZA low dose group, (0.2 mg/kg iv), OS high-dose group (10 mg/kg po) and OS low-dose group (5 mg/kg po), with 10 rats in each group. The groups with drug administration are pre-administered drugs 24 h and 12 h in advance before the rats are anesthetized with 3% chloral hydrate at 10 ml/kg, laid flat on their backs and fixed on the rat plate. Then cut them open at between left 4th and 5th ribs to open the pericardium, expose the heart, gently press the thorax to extrude the heart, find the left anterior descending coronary artery in the pulmonary artery cone and left atrium, and immediately bind the root of the left anterior descending coronary artery (pulmonary artery cone and left atrial appendage) with suture 0; push the heart back to the chest, and squeeze out the blood and gas in the chest cavity, close the chest cavity quickly, suture the skin, and the chest opening time is no more than 30 s. […]
The level of myocardial neuraminidase in the rat is detected by […], and the detection kit is a neuraminidase detection kit, which is measured according to the instruction manual of the test kit. […]

myocardial neuraminidase = assay: Myocardial neuraminidase level by ELISA after isoproterenol modeling; format: in vivo, SD rats; conditions: ISO model rats; for Effect on the expression level of myocardial neuraminidase: ELISA, in words; for Neuraminidase concentration (myocardial neuraminidase expression level): 3 days
Method: 1. The acute myocardial ischemia model in rats with ISO: SD rats are selected and divided according to body weight into six groups: blank control group, model group, ZA high dose group (0.5 mg/kg iv) and ZA low dose group (0.2 mg/kg iv), OS high dose group (10 mg/kg po), OS low dose group (5 mg/kg po), with 10 rats in each group. The groups with drug administration are administered the drugs continuously for 3 days, and on the second day of drug administration, and 30 minutes after the drug administration, they are performed subcutaneous injection of ISO at a dose of 60 mg/kg; on the third day of drug administration, and 30 minutes after the drug administration, they are also performed subcutaneous injection of ISO at a dose of 60 mg/kg; on the fourth day their tissue samples such as blood and heart are collected on the fourth day. […]
3.3 Determination of Myocardial Neuraminidase Level
The level of myocardial neuraminidase in the rat is detected by […], and the detection kit is a neuraminidase detection kit, which is measured according to the instruction manual of the test kit.
(§1) 1. The acute myocardial ischemia model in rats with ISO: SD rats are selected and divided according to body weight into five groups: blank control group, model group, coptisine high dose group (100 mg/kg p.o.) and coptisine medium dose group 25 mg/kg p.o.), coptisine low dose group (10 mg/kg p.o.), with 10 rats in each group. The groups with drug administration are administered the drugs continuously for 3 days, and on the second day of drug administration, and 30 minutes after the drug administration, they are performed subcutaneous injection of ISO at a dose of 60 mg/kg; on the third day of drug administration, and 30 minutes after the drug administration, they are also performed subcutaneous injection of ISO at a dose of 60 mg/kg; on the fourth day their tissue samples such as blood and heart are collected on the fourth day.
3.3 Method for determination of myocardial neuraminidase level: same as in Embodiment 1.

[2] = test system: isoproterenol-induced acute myocardial ischemia; assay: Electrocardiogram in the acute myocardial ischemia model in rats with ISO; format: in vivo, SD rats; conditions: for Impact on the ECG (myocardial damage): all dose groups, in words
Method: (§2) 1. The acute myocardial ischemia model in rats with ISO: SD rats are selected and divided according to body weight into six groups: blank control group, model group, ZA high dose group (0.5 mg/kg iv) and ZA low dose group (0.2 mg/kg iv), OS high dose group (10 mg/kg po), OS low dose group (5 mg/kg po), with 10 rats in each group. The groups with drug administration are administered the drugs continuously for 3 days, and on the second day of drug administration, and 30 minutes after the drug administration, they are performed subcutaneous injection of ISO at a dose of 60 mg/kg; on the third day of drug administration, and 30 minutes after the drug administration, they are also performed subcutaneous injection of ISO at a dose of 60 mg/kg; on the fourth day their tissue samples such as blood and heart are collected on the fourth day.
3.1 Record the Electrocardiogram
Record the electrocardiogram of each group using standard II lead
as §1
3.1 Record ECG: Same as Embodiment 1.

[3] = test system: isoproterenol-induced acute myocardial ischemia; assay: Cardiac pathology (HE sections) in the acute myocardial ischemia model in rats with ISO; format: in vivo, SD rats; conditions: for Effect on myocardial cell morphology (cardiac pathological sections): all dose groups, in words
Method: as §2
3.2 Observe the Cardiac Pathology
Fix the myocardial tissue of the apical site of the hearts in 10% formaldehyde solution, obtain material conventionally, perform dehydration, embedding in paraffin, and make it into sheets (4 μm thick), stain them with HE, and observe them under an optical microscope.
as §1
3.2 Observing the pathological section of the heart: same as in Embodiment 1.

serum CK-MB and D-LDH = assay: Serum myocardial damage indicators CK-MB and D-LDH after isoproterenol modeling; format: in vivo, SD rats; design: Serum CK-MB concentration: unit not given here; conditions: ISO model rats; for Serum CK-MB concentration / Serum D-LDH concentration: 3 days
Method: as §2
3.4 the Detection Method for Serum Myocardial Damage Indicator CK-MB and D-LDH
Measure CK-MB and D-LDH according to the CK-MB detection kit (Roche) and D-LDH detection kit (Invitrogen) operating instructions, respectively.
as §1
3.4 Detection method for serum myocardial damage index CK-MB and D-LDH: same as in Embodiment 1.

neuraminidase = assay: Inhibitory rate on neuraminidase (neuraminidase assay kit, fluorescence); format: biochemical
Method: 3.5 Determination of the inhibitory rate of coptisine on neuraminidase
Neuraminidase activity is determined using a neuraminidase assay kit. Accurately weigh standard coptisine, and prepare 200 μM (high dose group), 100 μM (medium dose group), and 50 μM (low dose group) solution in that order. To prepare a standard curve, add 70 μl of neuraminidase assay buffer to each well in a 96-well fluorescent plate, and add 0, 1, 2, 5, 7.5 and 10 μl of neuraminidase to each well, respectively. Then add […] of Milli-Q water per well so the total volume of each well is 90 μl. To test the sample, add 70 μl of neuraminidase detection buffer to each well of a 96-well fluorescent plate, then add 10 μl of neuraminidase and 10 μl of coptisine solution in different concentrations per well. Add 0-10 μl of Milli-Q water per well so the total volume of each well is 90 After shaking for about 1 minute, incubate at 37° C. for 2 minutes so the inhibitor fully interacts with neuraminidase; then add 10 μl of neuraminidase fluorescein substrate per well, mix by shaking, incubate at 37° C. for 30 minutes and then perform fluorescence measurement at excitation wavelength 322 nm and emission wavelength of 450 nm.

[4] = oseltamivir phosphate high dose group, 10 mg/kg po
[5] = oseltamivir phosphate low dose group, 5 mg/kg po
[6] = zanamivir high dose group, 0.5 mg/kg iv
[7] = zanamivir low dose group, 0.2 mg/kg iv
[8] = high dose coptisine group, 100 mg/kg p.o.
[9] = low dose coptisine group, 10 mg/kg p.o.
[10] = medium dose coptisine group, 25 mg/kg p.o.

SMILES: CCOC(=O)C1=C[C@@H](OC(CC)CC)[C@H](NC(C)=O)[C@@H](N)C1 [Oseltamivir phosphate, oseltamivir phosphate]
- Electrocardiogram and cardiac pathology [1]: significantly improve electrocardiogram and cardiac pathology in rats
- Effect on the expression level of myocardial neuraminidase (myocardial neuraminidase): effective in inhibiting the increase in neuraminidase expression induced by myocardial ischemia in a dose-dependent manner
- Neuraminidase concentration (myocardial neuraminidase expression level) (myocardial neuraminidase; [4]): 16.7202 U/μL
- Neuraminidase concentration (myocardial neuraminidase expression level) (myocardial neuraminidase; [5]): 21.547 U/μL
- Impact on the ECG (myocardial damage) [2]: effectively improve myocardial damage in a dose-dependent manner
- Effect on myocardial cell morphology (cardiac pathological sections) [3]: effective in improving myocardial damage in a dose-dependent manner
- Serum CK-MB concentration (serum CK-MB and D-LDH; [4]): 2846.67
- Serum D-LDH concentration (serum CK-MB and D-LDH; [4]): 7.208 mU/ml
- Serum CK-MB concentration (serum CK-MB and D-LDH; [5]): 2964.44
- Serum D-LDH concentration (serum CK-MB and D-LDH; [5]): 7.793 mU/ml

SMILES: CC(=O)N[C@H]1[C@H]([C@H](O)[C@H](O)CO)OC(C(=O)O)=C[C@@H]1N=C(N)N [Zanamivir, zanamivir]
- Electrocardiogram and cardiac pathology [1]: significantly improve electrocardiogram and cardiac pathology in rats
- Effect on the expression level of myocardial neuraminidase (myocardial neuraminidase): effective in inhibiting the increase in neuraminidase expression induced by myocardial ischemia in a dose-dependent manner
- Neuraminidase concentration (myocardial neuraminidase expression level) (myocardial neuraminidase; [6]): 16.9244 U/μL
- Neuraminidase concentration (myocardial neuraminidase expression level) (myocardial neuraminidase; [7]): 21.8341 U/μL
- Impact on the ECG (myocardial damage) [2]: effectively improve myocardial damage in a dose-dependent manner
- Effect on myocardial cell morphology (cardiac pathological sections) [3]: effective in improving myocardial damage in a dose-dependent manner
- Serum CK-MB concentration (serum CK-MB and D-LDH; [6]): 3544.44
- Serum D-LDH concentration (serum CK-MB and D-LDH; [6]): 8.383 mU/ml
- Serum CK-MB concentration (serum CK-MB and D-LDH; [7]): 3713.33
- Serum D-LDH concentration (serum CK-MB and D-LDH; [7]): 8.804 mU/ml

SMILES: c1c2c(cc3c1OCO3)-c1cc3ccc4c(c3c[n+]1CC2)OCO4 [coptisine]
- Effect on the expression level of myocardial neuraminidase (myocardial neuraminidase): effectively inhibit the increase of neuraminidase expression induced by myocardial ischemia in a dose-dependent manner
- Reduction of myocardial neuraminidase expression compared with the model group (myocardial neuraminidase; [8]): about 40%
- Reduction of myocardial neuraminidase expression compared with the model group (myocardial neuraminidase; [9]): about 21%
- Reduction of myocardial neuraminidase expression compared with the model group (myocardial neuraminidase; [10]): about 29%
- Impact on the ECG (myocardial damage) [2]: effectively improve myocardial damage in a dose-dependent manner
- Electrocardiogram compared with blank control group [2, 8]: basically consistent with the blank control group
- Effect on myocardial cell morphology (cardiac pathological sections) [3]: effectively improve myocardial damage in a dose-dependent manner
- Inflammatory cell infiltration [3, 8]: no inflammatory cell infiltration
- Myocardial cell morphology and intercellular fissure compared with blank control group [3, 8]: basically consistent with the blank control group
- Reduction of serum CK-MB and LDH levels compared with the model group (serum CK-MB and D-LDH; [8]): about 40%
- Reduction of serum CK-MB and LDH levels compared with the model group (serum CK-MB and D-LDH; [9]): about 20%
- Reduction of serum CK-MB and LDH levels compared with the model group (serum CK-MB and D-LDH; [10]): about 30%
- Neuraminidase inhibition, assessment in words (neuraminidase; 50-200 μM): potent neuraminidase inhibitor
- Inhibitory rate on neuraminidase (neuraminidase; coptisine concentration 50 μM): 5.64%
- Inhibitory rate on neuraminidase (neuraminidase; coptisine concentration 100 μM): 28.69%
- Inhibitory rate on neuraminidase (neuraminidase; coptisine concentration 200 μM): 56.25%

Reference: patent US10639289B2, “Application of neuraminidase and inhibitors thereof in myocardial ischemia and myocardial infarction” (CHINA PHARMACEUTICAL UNIVERSITY, priority 2016, dated 2020)
